Results published in patent publication US7538129B2, “Diazonamide A analog” (Board of Regents, The University of Texas System, priority 2005, dated 2009).
Where “and” joins values, the source holds several entries; their conditions need not be identical. Identical values can stand only once. Entries after “also recorded” stand apart in the source; their conditions may differ.

Assays:
[1] = system: neutrophils (GR1+ cells) in bone marrow; experiment: neutrophil counts in bone marrow; assay type: in vivo, mice; settings: for neutrophil counts in bone marrow: 5 mg/kg; for neutrophil counts in bone marrow (number of GR1+ cells in one femu): 20 mg/kg, FIG. 5A
Text: In addition to measuring the affect on tumors, the effect of paclitaxel and Compound J on neutrophils in […] and blood were obtained. […] The data are provided as the number of GR1+ cells in one femu.
(§1) The details of the protocol for Examples 19 and 20 are as follows: […]

PC-3 xenografts = experiment: growth inhibition of PC-3 xenografts; assay type: in vivo, mice; settings: 20 mg/kg; for inhibition of growth of PC-3 xenografts: FIG. 4B; for % Max T/C / Log10 Tumor Cell Kill: PC3 (prostate), IV
Method: In FIG. 4B, the squares are the control, the dark circles are the data-points for Compound J and the light diamonds are data-points for paclitaxel.
The details of the protocol for Examples 19 and 20 are as follows:
• PC3 prostrate tumor cells and HCT116 colon tumor cells (acquired from the tumor repository Division of Cancer Treatment and Diagnosis (DCTD) of the NCI • Complete RPMI Media • RPMI (Cat# 11875-085, Invitrogen) • 10% Heat-inactivated (30′ 56° C.) Fetal Bovine Serum (Cat# 100-106, Gemini Bio-Products • 2 mM L-glutamine (Cat# 25030-081, Invitrogen) • 0.1 mM MEM Non-Essential Amino Acids Solution (Cat#11140-050, Invitrogen) • 10 U/ml Penicillin/10 μg/ml Streptomycin (Cat#15140-122, Invitrogen) • 1 mM Sodium Pyruvate (Cat#l 1360-070) • Trypsin-EDTA (Cat#25300-054, Invitrogen) • Ca^2+/Mg^2+-free Phosphate Buffered Saline, 5% dextrose in water • Cell Culture Dish 150 mm×25 mm (Cat# 430599, Coming, Inc.) • 10 and 25 ml pipets, standard pipet-aid, p200 and p1000 pipette tips and standard pipetmen • Athymic NCr-nu/nu nude mice at 6-12 weeks of age, either sex (Strain code: 01B74, NCI Frederick Animal Production Program—suppliers include Charles River Labs and Taconic Farms). Female mice of approximately 7 weeks of age were utilized for existing experiments. • Standard 1 cc tuberculin syringe, 30G½ and 25G⅝ needles (Becton Dickinson) • Falcon 5 ml tubes (Cat#352054) • 50 and 15 ml disposable plastic conical tubes (Falcon or similar vendor) • Trypan Blue Solution (0.4%) (Cat#T8154, Sigma) • Hausser phase contrast hemacytometer (Cat# 02-671-54, Fisher) • Ice bucket • Balance for weighing mice (accurate to 0.2 g) • Vernier calipers • Vivarium facility free from known pathogens (nude mice should be housed in isolation from conventional mice if possible—separate rooms or micro-isolator cages equipped with individual air flow; all animal housing, bedding, water should be autoclaved prior to use; standard irradiated mouse chow should be used; animals should be changed out of cages within laminar flow hood; investigators handling mice should be suitably garbed—disposable gown, bonnet, booties, gloves, mask) • AB-5 (Compound J) compound • Ethyl alcohol, 200 proof (Aaper, MFD 041205) • Cremaphor (Cat# C5135, Sigma) • Paclitaxel (Cat#ANP0010, Polymed Therapeutics) Procedure: • 1) Rapidly thaw PC3 or HCT116 cells (if necessary) in 37° C. water bath. Transfer contents to 9ml complete RPMI media. Spin 5′ at 1200 rpm (240 Xg). Discard media and resuspend pellet in 8 ml complete RPMI media. Plate in 100 mm×25 mm cell culture dish in 5% CO2, 37° C. humidified incubator. • 2) Allow to grow for 5-10 days, splitting (aspirate media, wash with 3-5 ml PBS, add 1 ml trypsin-EDTA, incubate 3-5′ at 37° C., add media to desired volume and transfer to multiple plates) 1:8 to 1:10 every 3-4 days as necessary to allow cells to enter phase of logarithmic growth. • 3) When cells are growing well, begin to expand to 150 mm×25 mm dishes. We use 20 ml of media in a 150 mm dish and use 2 ml of trypsin for splitting. When nearly confluent, there should be 2×10^7 cells/150 mm dish. • 4) Plan ahead to time arrival of nu/nu mice such that they can acclimate to animal facility for 1 week prior to injection of tumor cells. […] Plan to inject 10 million cells/mouse and allow for loss of cells/volume during injection process. That is, if 30 mice are to be injected, plan to harvest cells sufficient for at least 35 injections—35×10 million cells=3.5×10^8 cells. In the existing HCT116 experiment, 7.5×10^6 cells were injected per mouse. Five mice per group were utilized for AB-5 treatment and four mice per group were utilized for the control and paclitaxel treatments. In the existing PC3 experiment, 10^7 cells were injected. Six mice per group were utilized for the control treatment and five mice per group were utilized for the AB-5 and paclitaxel treatments. […]

[2] = system: MDA-MB-435 (breast) xenografts; experiment: growth inhibition of MDA-MB-435 xenografts; assay type: in vivo, mice; settings: 20 mg/kg, IP
[3] = system: neutrophils in peripheral blood; experiment: neutrophil count in peripheral blood; assay type: in vivo, mice; settings: for neutrophil count in peripheral blood, ANC (cell/ml): FIG. 5B
Text: as §1

[4] = system: PTX10 ovarian tumor cell line; experiment: survival of PTX10 ovarian tumor cell line; assay type: cell-based; settings: PTX10, FIG. 2
Text: Additional experiments testing the effect of Compound J and paclitaxel on the survival of PTX10ovarian tumor cell line are shown in FIG. 2. […] In FIG. 2, the circles represent Compound J and the diamonds represent paclitaxel.

MDA-MB-231 = experiment: growth inhibition (GI50) of tumor cell lines; assay type: cell-based; settings: MDA-MB-231, FIG. 1
Method: (§2) A number of tumor cell lines representing breast, lung, colon, ovarian and prostate cancer as well as melanoma were assayed under standard growth conditions in presence of varying amounts of diazonamide A, a hydroxylated form of Compound J, Compound J, paclitaxel and vinblastine. The results are graphed as the concentration that diminishes growth by a factor of two (GI50) in FIG. 1.

[5] = system: melanoma tumor cell lines; experiment: growth inhibition (GI50) of tumor cell lines; assay type: cell-based; settings: FIG. 1
Method: as §2

[6] = pharmacokinetics, intratumoral concentration after intravenous injection; assay type: in vivo; settings: mice with MDA-MB-435 xenograft tumors
Method: Compound J was injected intravenously into mice containing xenograft tumors grown from MDA-MB-435 breast cancer cells. The intratumoral concentration of Compound J was measured as a function of time.

SKMEL-2 = experiment: growth inhibition (GI50) of tumor cell lines; assay type: cell-based; settings: SKMEL-2, FIG. 1
Method: as §2

[7] = system: ovarian cell line IGR-OV1; experiment: growth inhibition (GI50) of tumor cell lines; assay type: cell-based; settings: IGR-OV1, FIG. 1
Method: as §2

Structure (SMILES): CC(C)[C@H](O)C(=O)N[C@H]1Cc2ccc3c(c2)[C@]24C5=C(N=C(O5)[C@H](C(C)C)NC1=O)c1ncc(o1)-c1c[nH]c5cccc(c15)-c1cccc2c1NC4O3 (stereo in doubt) [Compound J]
- neutrophil counts in bone marrow [1]: no effect
- neutrophil counts in bone marrow (number of GR1+ cells in one femu) [1]: no effect
- neutrophil proliferation or cell counts in vivo ([1]; FIG. 5A legend): no effect
- inhibition of growth of PC-3 xenografts (PC-3 xenografts): comparable to paclitaxel; also recorded: significantly inhibited tumor growth
- % Max T/C (PC-3 xenografts): 0.3%
- Log10 Tumor Cell Kill (PC-3 xenografts): 3.4
- #Tumor Free (day) [2]: 0/6
- % Max T/C [2]: 6.8% and 3.1%
- neutrophil count in peripheral blood, ANC (cell/ml) ([3]; 5 mg/kg): no effect; also recorded: not significantly affected
- neutrophil count in peripheral blood, ANC (cell/ml) ([3]; 20 mg/kg): no effect; also recorded: not significantly affected
- neutrophil proliferation or cell counts in vivo ([3]; FIG. 5B legend): no effect
- percentage of cells surviving (survival fraction against concentration) [4]: more effective than paclitaxel
- GI50 (concentration that diminishes growth by a factor of two) (MDA-MB-231): more effective than the remaining drugs
- GI50 (concentration that diminishes growth by a factor of two) [5]: less effective than the remaining drugs
- area under the curve [6]: 3010224 ng·min/mL
- half-life ([6]; mouse, tumor, read-out: terminal half-life): 4.96 h
- Vd ([6]; mouse, tumor, read-out: volume of distribution): 2.9 L/kg

Structure (SMILES): CC(=O)O[C@H]1C(=O)[C@@]2(C)[C@H]([C@H](OC(=O)c3ccccc3)[C@]3(O)C[C@H](OC(=O)[C@H](O)[C@@H](NC(=O)c4ccccc4)c4ccccc4)C(C)=C1C3(C)C)[C@]1(OC(C)=O)CO[C@@H]1C[C@@H]2O [paclitaxel, reference compound]
- neutrophil counts in bone marrow [1]: reduction of neutrophil counts
- neutrophil counts in bone marrow (number of GR1+ cells in one femu) [1]: reduction of neutrophil counts; also recorded: significantly lowered
- inhibition of growth of PC-3 xenografts (PC-3 xenografts): significantly inhibited tumor growth
- % Max T/C (PC-3 xenografts): 0%
- Log10 Tumor Cell Kill (PC-3 xenografts): 3.4
- neutrophil count in peripheral blood, ANC (cell/ml) ([3]; 5 mg/kg): reduction of neutrophil counts; also recorded: greatly lowered
- neutrophil count in peripheral blood, ANC (cell/ml) ([3]; 20 mg/kg): reduction of neutrophil counts; also recorded: greatly lowered
- GI50 (concentration that diminishes growth by a factor of two) (SKMEL-2): significantly less effective than the remaining four drugs
- GI50 (concentration that diminishes growth by a factor of two) [7]: significantly less effective than the remaining four drugs
